Data as given in patent US11717557B2, “Use of PRG4 as an anti-inflammatory agent” (Lubris LLC, priority 2015, dated 2023).

Legend:
[1] = Serum cytokine levels after DMM surgery and intraarticular lubricin; format: in vivo, rat; details: single intraarticular dose 200 μg/kg seven days after DMM surgery; samples 3 weeks after dose; versus saline
Experimental: In order to determine if lubricin could modulate pro-inflammatory cytokine levels in vivo, a rat model was used. Nine rats were subject to surgery to destabilize the medial meniscus (DMM surgery). Seven days after surgery, each rat received a single intraarticular dose of lubricin of 200 μg/kg. Control rats received an injection of an equal volume of saline. Cytokine levels in serum samples taken from the […] were compared with […] who received surgery but no dose of lubricin post-surgery. Samples were drawn 3 weeks after the dose of lubricin was administered and analyzed using the Luminex Multiplex platform. The results are shown in FIG. 13 where the measured levels of EPO, IL-13, IL-10, IL-18, IL-1α, IL-2, MCSF, IL-1β, IL-4, IFN-γ, MIP-3α, GMCSF, IL-7, TNF-α, VEGF, MCP-1, IL-5, G-CSF, RANTES, IL-6, GRO, IL-17α, and IL-12p70 are shown. The levels of IL-18, MCSF, MCP-1, RANTES, and GRO were all reduced in rats receiving lubricin as compared to rats that were injected with saline alone.

[2] = test system: Rheumatoid arthritis fibroblast-like synoviocytes (RA-FLS); assay: Cytokine-induced RA-FLS proliferation (MTS); format: cell-based; details: 48 hours, p<0.05
Experimental: Rheumatoid arthritis fibroblast-like synoviocytes (RA-FLS; Cell Applications, USA) between 3rd and 6th passages were used to conduct these experiments. In sterile 96 well plates, RA-FLS (5,000 cells per well in 80 μL) were cultured in DMEM supplemented with 1% FBS and 1 mM pyruvate and stimulated with recombinant human interleukin-1 beta (IL-1β; R & D systems) at 20 ng/mL or tumor necrosis factor alpha (TNF-α; R & D systems) at 5 ng/mL for 48 hours at 37° C. in the absence or presence of rhPRG4 or HMW HA at a final concentration of 20, 40 or 80 μg/mL. The total volume in each well was 200 μL. Cell proliferation, an indication of inflammation, was determined using the CellTiter 96 AQueous one solution cell proliferation assay (MTS; Promega, USA) and the 490 nm absorbance was determined. Data is presented as the number of fold change in 490 nm absorbance compared to untreated control RA-FLS. The data represents the average of 3 independent experiments with at least triplicate wells per treatment. To evaluate the contribution of CD44 to the effect of rhPRG4 or HMW HA, RA-FLS were stimulated with IL-1β or TNF-α as described above. Treatment with rhPRG4 or HMW HA was conducted to a final concentration of 80 μg/mL in the absence or presence of IM7 (Abcam, USA), a CD44 neutralizing antibody that recognizes a conserved epitope across all CD44 isoforms (Samson et al., Exp Eye Res, 2014; 127C:14-19), at a final dilution of 1:200. The total volume in each well was 200 μl. Cell proliferation across the experimental groups was determined as described above and data is presented as the number of fold change in 490 nm absorbance compared to untreated control RA-FLS. The data represents the average of 3 independent experiments with at least triplicate wells per treatment.

whole blood = assay: Lubricin on TNF-α mediated inflammatory cytokine generation in whole blood; format: cell-based, human
Experimental: The effect of lubricin on TNF-α mediated inflammatory cytokine generation was studied using Biochip Array technology. Recombinant TNF-α was used as a trigger to generate inflammatory cytokines in whole blood. The effect of lubricin was studied on the TNF-α mediated generation of various cytokines. TNF-α alone at a concentration of […] was supplemented to the whole blood which was incubated for 60 minutes at 37° C. TNF-α was supplemented to whole blood in a 1:10 dilution. The modulatory effects of lubricin on TNF-α-mediated generation of various cytokines were studied by supplementing lubricin at 0.57 mg/mL in the whole blood immediately prior to addition of TNF-α. After 60 minutes plasma was obtained from centrifugation and analyzed for inflammatory cytokine using Randox Biochip arrays.

whole citrated blood = assay: Lubricin alone, inflammatory cytokines in whole blood; format: cell-based, human; details: lubricin 0.57 mg/mL, 60 minutes; versus saline control
Experimental: Utilizing the same approach the effect of lubricin on the generation of inflammatory cytokines in whole blood was also studied using similar experimental settings. In these studies the effect of lubricin (0.57 mg/mL) was studied by supplementing it to the whole citrated blood drawn from the normal healthy volunteers. The samples were profiled for inflammatory cytokine levels along with a saline control in samples incubated for 60 minutes. Whole blood was centrifuged to obtain plasma which was profiled for various inflammatory cytokines using high sensitivity cytokine assay.

[3] = test system: osteoarthritic (OA) synovial fluid cells; assay: Cytokines secreted by osteoarthritic synoviocytes (Luminex); format: cell-based, human; details: rhPRG4 90 μg/mL, 24 hours, versus PBS
Experimental: Synovial fluid cells were obtained from normal and osteoarthritic (OA) patients and purified with CD90+ following an immune cell depletion. The cells were plated at 10,000 per well and suspended in media containing DMEM, heat-inactivated Hyclone FBS (10%), and Anti-Anti (1%). The assays contained the cell suspension (cells+ media) at 180 μL and the ligands at 20 μL for a total volume of 200 μL. Recombinant lubricin (rhPRG4) was then introduced to the cells at a concentration of 90 μg/mL and the negative control was PBS. The plate was then incubated at 37° C. at 5% CO2 for 24 hours, after which the supernatants were collected for cytokine analysis via the Luminex multiplex platform.

For “rhPRG4: full-length recombinant human PRG4 (lubricin) glycoprotein produced by CHO-M cells (Lubris), Mr≅240 KDa”, the “serum levels of IL-18, MCSF, MCP-1, RANTES and GRO” value [1] was “reduced”, the “RA-FLS proliferation with IL-1β stimulation” value ([2]; IL-1β 20 ng/mL, treatment 40 and 80 μg/mL) was “significantly suppressed” and the “RA-FLS proliferation with TNF-α stimulation” value ([2]; TNF-α 5 ng/mL, treatment 20, 40 and 80 μg/mL) was “significantly suppressed”. For the same substance, the “IL-6, IL-8, IL-10, VEGF, TNF-α, IL-1β and EGF” value (whole blood; lubricin 0.57 mg/mL before TNF-α 100 mg/mL, 60 minutes at 37° C., versus TNF-α alone) was “decrease”, the “decrease of the levels of cytokines” value (whole blood; lubricin 0.57 mg/mL, versus TNF-α alone) was 10-100% and the “TNF-α stimulated IFN-γ and TNF-α” value (whole blood; lubricin 0.57 mg/mL, versus stimulation in the absence of lubricin) was “most dramatic decrease”. The “VEGF, IL8, IL6 and IL10” value (whole citrated blood) was “most prominent decrease”, the “production of IL-4, IL-6, IL-8, IL-10, VEGF, TNF-α, IL-1β, MCP-1 and EGF” value (whole citrated blood) was “decrease” and the “FGF-2 and IL-1Ra cytokines” value [3] was “down-regulation”.
